Reference: PMC5218480 (PLoS ONE, 2017)

Test system: MV-4-11 cells
Experiment: Gene expression microarray analysis (Affymetrix PrimeView) and GSEA
Type: cell-based, human
Set-up: RFU PODN (11730768_x_at) / Fold change /veh PODN (11730768_x_at) / RFU LINC00158 (11744669_a_at) / Fold change /veh LINC00158 (11744669_a_at) / RFU DUSP10 (11751237_a_at) / Fold change /veh DUSP10 (11751237_a_at) / RFU ID3 (11757404_x_at) / Fold change /veh ID3 (11757404_x_at) / RFU PLEKHG5 (11737974_s_at) / Fold change /veh PLEKHG5 (11737974_s_at) / RFU LRRC4B (11730491_at) / Fold change /veh LRRC4B (11730491_at) / RFU GIMAP4 (11747438_a_at) / Fold change /veh GIMAP4 (11747438_a_at) / RFU KRT8 (11758183_x_at) / Fold change /veh KRT8 (11758183_x_at) / RFU CNN1 (11734310_a_at) / Fold change /veh CNN1 (11734310_a_at) / RFU VPS37D (11726825_at) / Fold change /veh VPS37D (11726825_at) / RFU C10orf10 (11716522_x_at) / Fold change /veh C10orf10 (11716522_x_at) / RFU KIR2DL2 /// KIR2DL4 /// KIR2DL5A /// KIR2DL5B /// KIR2DS1 /// KIR2DS2 /// KIR2DS3 /// KIR2DS4 /// KIR3DL3 /// KIR3DL3 /// KIR3DS1 (11738374_at) / Fold change /veh KIR2DL2 /// KIR2DL4 /// KIR2DL5A /// KIR2DL5B /// KIR2DS1 /// KIR2DS2 /// KIR2DS3 /// KIR2DS4 /// KIR3DL3 /// KIR3DL3 /// KIR3DS1 (11738374_at) / RFU C1QL1 (11718748_at) / Fold change /veh C1QL1 (11718748_at) / RFU TMPRSS4 (11747572_a_at) / Fold change /veh TMPRSS4 (11747572_a_at) / RFU HAMP (11756126_x_at) / Fold change /veh HAMP (11756126_x_at) / RFU RNFT2 (11725882_a_at) / Fold change /veh RNFT2 (11725882_a_at) / RFU NR4A2 (11747474_a_at) / Fold change /veh NR4A2 (11747474_a_at) / RFU ABCC12 (11746883_a_at) / Fold change /veh ABCC12 (11746883_a_at) / RFU TMEM136 (11760407_x_at) / Fold change /veh TMEM136 (11760407_x_at) / RFU CLDN22 /// WWC2 (11732394_at) / Fold change /veh CLDN22 /// WWC2 (11732394_at) / RFU HLA-DPB1 (11760878_x_at) / Fold change /veh HLA-DPB1 (11760878_x_at) / RFU SPINT1 (11716480_a_at) / Fold change /veh SPINT1 (11716480_a_at) / RFU GAP43 (11754022_s_at) / Fold change /veh GAP43 (11754022_s_at) / RFU A4GNT (11735810_at) / Fold change /veh A4GNT (11735810_at) / RFU PRB3 (11715151_x_at) / Fold change /veh PRB3 (11715151_x_at) / RFU TUBB4B (11761932_at) / Fold change /veh TUBB4B (11761932_at) / RFU CAPN14 (11732068_a_at) / Fold change /veh CAPN14 (11732068_a_at) / RFU TMCC2 (11721928_a_at) / Fold change /veh TMCC2 (11721928_a_at) / RFU IRGQ (11745062_a_at) / Fold change /veh IRGQ (11745062_a_at) / RFU FAM174B (11720279_a_at) / Fold change /veh FAM174B (11720279_a_at) / RFU TMPRSS4 (11748680_a_at) / Fold change /veh TMPRSS4 (11748680_a_at) / RFU FAM212B (11763350_a_at) / Fold change /veh FAM212B (11763350_a_at) / RFU PLEKHG5 (11743358_a_at) / Fold change /veh PLEKHG5 (11743358_a_at) / RFU ZSCAN30 (11745921_a_at) / Fold change /veh ZSCAN30 (11745921_a_at) / RFU CMKLR1 (11741424_a_at) / Fold change /veh CMKLR1 (11741424_a_at) / RFU LOC101060620 /// MAPK8IP1 (11723275_at) / Fold change /veh LOC101060620 /// MAPK8IP1 (11723275_at) / RFU SPTSSB (11747773_x_at) / Fold change /veh SPTSSB (11747773_x_at) / RFU PRSS12 (11739890_at) / Fold change /veh PRSS12 (11739890_at) / RFU BIN1 (11741810_x_at) / Fold change /veh BIN1 (11741810_x_at) / RFU WNT11 (11732464_a_at) / Fold change /veh WNT11 (11732464_a_at) / RFU C10orf10 (11716521_a_at) / Fold change /veh C10orf10 (11716521_a_at) / RFU C5orf56 (11738089_at) / Fold change /veh C5orf56 (11738089_at) / RFU CYB561 (11721691_x_at) / Fold change /veh CYB561 (11721691_x_at) / RFU ANKRD19P (11752326_a_at) / Fold change /veh ANKRD19P (11752326_a_at) / RFU OR2T12 /// OR2T33 /// OR2T8 (11738714_s_at) / Fold change /veh OR2T12 /// OR2T33 /// OR2T8 (11738714_s_at) / RFU VCAN (11748164_a_at) / Fold change /veh VCAN (11748164_a_at) / RFU JSRP1 (11732532_at) / Fold change /veh JSRP1 (11732532_at) / RFU KRTAP10-11 (11738290_x_at) / Fold change /veh KRTAP10-11 (11738290_x_at) / RFU MYO3A (11730013_a_at) / Fold change /veh MYO3A (11730013_a_at) / RFU EBF3 (11725865_a_at) / Fold change /veh EBF3 (11725865_a_at) / RFU CAMK2N1 (11719241_x_at) / Fold change /veh CAMK2N1 (11719241_x_at) / RFU C5orf56 (11738088_a_at) / Fold change /veh C5orf56 (11738088_a_at) / RFU OLFML3 (11715873_a_at) / Fold change /veh OLFML3 (11715873_a_at) / RFU LOC100653217 /// NTM (11731650_a_at) / Fold change /veh LOC100653217 /// NTM (11731650_a_at) / RFU MAPK11 (11762145_a_at) / Fold change /veh MAPK11 (11762145_a_at) / RFU FIZ1 (11724087_x_at) / Fold change /veh FIZ1 (11724087_x_at) / RFU OASL (11726364_x_at) / Fold change /veh OASL (11726364_x_at) / RFU SOX15 (11748057_x_at) / Fold change /veh SOX15 (11748057_x_at) / RFU CD79A (11719716_a_at) / Fold change /veh CD79A (11719716_a_at) / RFU HIST1H1D (11736915_at) / Fold change /veh HIST1H1D (11736915_at) / RFU CASKIN2 (11723855_a_at) / Fold change /veh CASKIN2 (11723855_a_at) / RFU LOC730098 (11760151_x_at) / Fold change /veh LOC730098 (11760151_x_at) / RFU OR4N2 (11742367_at) / Fold change /veh OR4N2 (11742367_at) / RFU PRRT2 (11749266_a_at) / Fold change /veh PRRT2 (11749266_a_at) / RFU SNX32 (11753110_a_at) / Fold change /veh SNX32 (11753110_a_at) / RFU CDHR5 (11726645_a_at) / Fold change /veh CDHR5 (11726645_a_at) / RFU RCAN1 (11760418_a_at) / Fold change /veh RCAN1 (11760418_a_at) / RFU FAM167A (11723789_a_at) / Fold change /veh FAM167A (11723789_a_at) / RFU FAM26E (11764081_at) / Fold change /veh FAM26E (11764081_at) / RFU ISYNA1 (11749810_s_at) / Fold change /veh ISYNA1 (11749810_s_at) / RFU ACY1 (11761880_at) / Fold change /veh ACY1 (11761880_at) / RFU 11764098_at / Fold change /veh 11764098_at / RFU SAMD14 (11745864_x_at) / Fold change /veh SAMD14 (11745864_x_at) / RFU NPB (11741838_a_at) / Fold change /veh NPB (11741838_a_at) / RFU TMPRSS6 (11731388_a_at) / Fold change /veh TMPRSS6 (11731388_a_at) / RFU KRTAP10-2 (11738614_at) / Fold change /veh KRTAP10-2 (11738614_at) / RFU ARHGAP8 /// PRR5-ARHGAP8 (11727945_x_at) / Fold change /veh ARHGAP8 /// PRR5-ARHGAP8 (11727945_x_at) / RFU KRTAP5-7 /// NADSYN1 (11734609_at) / Fold change /veh KRTAP5-7 /// NADSYN1 (11734609_at) / RFU RASL12 (11751679_a_at) / Fold change /veh RASL12 (11751679_a_at) / RFU CDKN2B (11736163_a_at) / Fold change /veh CDKN2B (11736163_a_at) / RFU PRF1 (11729649_at) / Fold change /veh PRF1 (11729649_at) / RFU, ZNF638 /// ZNF638-IT1 / Fold change vs veh, ZNF638 /// ZNF638-IT1 / RFU, PANK3 / Fold change vs veh, PANK3 / RFU, SH3YL1 / Fold change vs veh, SH3YL1 / RFU, ZEB2 / Fold change vs veh, ZEB2 / RFU, NRIP1 / Fold change vs veh, NRIP1 / RFU, PTTG1IP / Fold change vs veh, PTTG1IP / RFU, CAPN2 / Fold change vs veh, CAPN2 / RFU, MED14 / Fold change vs veh, MED14 / RFU, SNORA58 / Fold change vs veh, SNORA58 / RFU, C1orf63 / Fold change vs veh, C1orf63 / RFU, LRRFIP1 / Fold change vs veh, LRRFIP1 / RFU, NDUFAF7 / Fold change vs veh, NDUFAF7 / RFU, SLC12A2 / Fold change vs veh, SLC12A2 / RFU, IBTK / Fold change vs veh, IBTK / RFU, ESF1 / Fold change vs veh, ESF1 / Fold change vs veh, TMEM50B / RFU, TAOK1 / Fold change vs veh, TAOK1 / RFU, ACBD3 / Fold change vs veh, ACBD3 / RFU, TMA16 / Fold change vs veh, TMA16 / RFU, RWDD3 / Fold change vs veh, RWDD3 / RFU, BCAT1 / Fold change vs veh, BCAT1 / RFU, EDEM3 / Fold change vs veh, EDEM3 / RFU, TMEM33 / Fold change vs veh, TMEM33 / RFU, WDR75 / Fold change vs veh, WDR75 / RFU, AHCTF1 / Fold change vs veh, AHCTF1 / RFU, TFRC / Fold change vs veh, TFRC / RFU, ZDHHC17 / Fold change vs veh, ZDHHC17 / RFU, NOM1 / Fold change vs veh, NOM1 / RFU, ARL8B / Fold change vs veh, ARL8B / RFU, ZBTB11 / Fold change vs veh, ZBTB11 / RFU, TAMM41 / Fold change vs veh, TAMM41 / RFU, KIAA1704 /// LOC100996395 / Fold change vs veh, KIAA1704 /// LOC100996395 / RFU, ING1 / Fold change vs veh, ING1 / RFU, TRMT61B / Fold change vs veh, TRMT61B / RFU, FUBP3 / Fold change vs veh, FUBP3 / RFU, TP53 / Fold change vs veh, TP53 / RFU, TNKS2 / Fold change vs veh, TNKS2 / RFU, ZFP14 / Fold change vs veh, ZFP14 / RFU, ACTR2 / Fold change vs veh, ACTR2 / RFU, PPP3R1 / Fold change vs veh, PPP3R1 / RFU, PIK3R1 / Fold change vs veh, PIK3R1 / RFU, HNRNPA1 / Fold change vs veh, HNRNPA1 / RFU, RNF170 / Fold change vs veh, RNF170 / RFU, ZNF28 / Fold change vs veh, ZNF28 / RFU, RNGTT / Fold change vs veh, RNGTT / RFU, OGT / Fold change vs veh, OGT / RFU, BRD1 / Fold change vs veh, BRD1 / RFU, MARS / Fold change vs veh, MARS / RFU, ZNF655 / Fold change vs veh, ZNF655 / RFU, FAHD1 / Fold change vs veh, FAHD1 / RFU, BDP1 / Fold change vs veh, BDP1 / RFU, LRRCC1 / Fold change vs veh, LRRCC1 / RFU, ARID1A / Fold change vs veh, ARID1A / RFU, ZNF146 / Fold change vs veh, ZNF146 / RFU, ZNF330 / Fold change vs veh, ZNF330 / RFU, GPN3 / Fold change vs veh, GPN3 / RFU, C9orf123 / Fold change vs veh, C9orf123 / RFU, N4BP2L2 / Fold change vs veh, N4BP2L2 / RFU, ARFIP1 / Fold change vs veh, ARFIP1 / RFU, FAM179B / Fold change vs veh, FAM179B / RFU, BCL10 / Fold change vs veh, BCL10 / RFU, UHRF1BP1L / Fold change vs veh, UHRF1BP1L / RFU, BET1 / Fold change vs veh, BET1 / RFU, CNOT2 / Fold change vs veh, CNOT2 / RFU, ZNF268 / Fold change vs veh, ZNF268 / Fold change vs veh, ZNF507 / RFU, DGCR2 / Fold change vs veh, DGCR2 / RFU, WDSUB1 / Fold change vs veh, WDSUB1 / Fold change vs veh, HSP90B1 /// MIR3652 / RFU, ADSS / Fold change vs veh, ADSS / RFU, GK / Fold change vs veh, GK / RFU, ZNF148 / Fold change vs veh, ZNF148 / RFU, TAF9 / Fold change vs veh, TAF9 / RFU, SLC1A5 / Fold change vs veh, SLC1A5 / RFU, SLMO2 / Fold change vs veh, SLMO2 / RFU, ABCC4 / Fold change vs veh, ABCC4 / RFU, LOC101060439 /// RAP1B / Fold change vs veh, LOC101060439 /// RAP1B / RFU, RFX7 / Fold change vs veh, RFX7 / RFU, GTPBP10 / Fold change vs veh, GTPBP10 / RFU, CNEP1R1 / Fold change vs veh, CNEP1R1 / RFU, BIVM-ERCC5 /// ERCC5 / Fold change vs veh, BIVM-ERCC5 /// ERCC5 / RFU, ILF3 / Fold change vs veh, ILF3 / RFU 11762660_at / Fold change /veh 11762660_at / RFU VCAN (11757783_s_at) / Fold change /veh VCAN (11757783_s_at) / RFU DDX43 (11728927_at) / Fold change /veh DDX43 (11728927_at) / RFU KRT8 (11758188_x_at) / Fold change /veh KRT8 (11758188_x_at) / RFU NKD1 (11759106_at) / Fold change /veh NKD1 (11759106_at) / RFU SRD5A1 (11742802_a_at) / Fold change /veh SRD5A1 (11742802_a_at) / RFU TPSAB1 /// TPSB2 (11721975_s_at) / Fold change /veh TPSAB1 /// TPSB2 (11721975_s_at) / RFU GSTM3 (11746129_a_at) / Fold change /veh GSTM3 (11746129_a_at) / RFU IL23R (11737362_x_at) / Fold change /veh IL23R (11737362_x_at) / RFU TMEM51 (11727254_a_at) / Fold change /veh TMEM51 (11727254_a_at) / RFU PIWIL2 (11732686_x_at) / Fold change /veh PIWIL2 (11732686_x_at) / RFU ORM1 (11744905_x_at) / Fold change /veh ORM1 (11744905_x_at) / RFU CCDC152 (11743942_at) / Fold change /veh CCDC152 (11743942_at) / RFU ECM1 (11717891_a_at) / Fold change /veh ECM1 (11717891_a_at) / RFU IL23R (11748794_a_at) / Fold change /veh IL23R (11748794_a_at) / RFU TNFAIP8L3 (11732012_x_at) / Fold change /veh TNFAIP8L3 (11732012_x_at) / RFU MBOAT4 (11741988_at) / Fold change /veh MBOAT4 (11741988_at) / RFU 11764193_at / Fold change /veh 11764193_at / RFU TMEM53 (11763286_at) / Fold change /veh TMEM53 (11763286_at) / RFU MAGEB2 (11727129_at) / Fold change /veh MAGEB2 (11727129_at) / RFU TMEM200A (11744735_a_at) / Fold change /veh TMEM200A (11744735_a_at) / RFU CCDC152 (11751479_a_at) / Fold change /veh CCDC152 (11751479_a_at) / RFU FAM211A (11726209_a_at) / Fold change /veh FAM211A (11726209_a_at) / RFU RGS16 (11746705_a_at) / Fold change /veh RGS16 (11746705_a_at) / RFU VCAN (11755009_s_at) / Fold change /veh VCAN (11755009_s_at) / RFU RHOB (11743442_s_at) / Fold change /veh RHOB (11743442_s_at) / RFU RGS16 (11720943_a_at) / Fold change /veh RGS16 (11720943_a_at) / RFU RGS16 (11720944_at) / Fold change /veh RGS16 (11720944_at) / RFU, VPS4B / Fold change vs veh, VPS4B / RFU, CREB1 / Fold change vs veh, CREB1 / RFU, DNAJC13 / Fold change vs veh, DNAJC13 / RFU, GNAQ / Fold change vs veh, GNAQ / RFU, CDK5R1 / Fold change vs veh, CDK5R1 / RFU, ZRANB3 / Fold change vs veh, ZRANB3 / RFU, CUL4A / Fold change vs veh, CUL4A / RFU, CCNY / Fold change vs veh, CCNY / RFU, UFL1 / Fold change vs veh, UFL1 / RFU, COG3 / Fold change vs veh, COG3 / RFU, DIAPH2 / Fold change vs veh, DIAPH2 / RFU, SKA2 / Fold change vs veh, SKA2 / RFU, AFF3 / Fold change vs veh, AFF3 / RFU, LMF1 / Fold change vs veh, LMF1 / RFU, IPO11 / Fold change vs veh, IPO11 / RFU, DFFB / Fold change vs veh, DFFB / RFU, FOXP1 / Fold change vs veh, FOXP1 / RFU, CARD8 / Fold change vs veh, CARD8 / RFU, STRN3 / Fold change vs veh, STRN3 / RFU, ADK / Fold change vs veh, ADK / RFU, RASSF2 / Fold change vs veh, RASSF2 / RFU, WIPF1 / Fold change vs veh, WIPF1 / RFU, LARP1B / Fold change vs veh, LARP1B / RFU, RASA1 / Fold change vs veh, RASA1 / RFU, RB1 / Fold change vs veh, RB1 / RFU, PPFIA1 / Fold change vs veh, PPFIA1 / RFU, MAT2A / Fold change vs veh, MAT2A / RFU, CCT5 / Fold change vs veh, CCT5 / RFU, WDR92 / Fold change vs veh, WDR92 / RFU, CUX1 / Fold change vs veh, CUX1 / RFU, TTC7A / Fold change vs veh, TTC7A / RFU, TMEM135 / Fold change vs veh, TMEM135 / RFU, DEPTOR / Fold change vs veh, DEPTOR / RFU, CPM / Fold change vs veh, CPM / RFU, DNAJB6 / Fold change vs veh, DNAJB6 / RFU, CACNA2D3 / Fold change vs veh, CACNA2D3 / RFU, DTX4 / Fold change vs veh, DTX4 / RFU, TFCP2 / Fold change vs veh, TFCP2 / RFU, GMCL1 /// GMCL1P1 / Fold change vs veh, GMCL1 /// GMCL1P1 / RFU, AEBP2 / Fold change vs veh, AEBP2 / RFU, SNHG1 /// SNORD22 /// SNORD25 /// SNORD26 /// SNORD27 /// SNORD28 /// SNORD29 /// SNORD31 / Fold change vs veh, SNHG1 /// SNORD22 /// SNORD25 /// SNORD26 /// SNORD27 /// SNORD28 /// SNORD29 /// SNORD31 / Fold change (Aza/veh), C12orf56 (ProbeSet 11735607_a_at) / Fold change (ACY-1035/veh), C12orf56 (ProbeSet 11735607_a_at) / Fold change (Aza/veh), FGFR1OP (ProbeSet 11751329_s_at) / Fold change (ACY-1035/veh), FGFR1OP (ProbeSet 11751329_s_at) / Fold change (Aza/veh), VPS36 (ProbeSet 11739960_a_at) / Fold change (ACY-1035/veh), VPS36 (ProbeSet 11739960_a_at) / RFU SYPL1 (11715823_x_at) / Fold change /veh SYPL1 (11715823_x_at) / RFU IGFBP7 (11715501_s_at) / Fold change /veh IGFBP7 (11715501_s_at) / RFU REEP3 (11722064_at) / Fold change /veh REEP3 (11722064_at) / RFU IGLL1 (11728026_x_at) / Fold change /veh IGLL1 (11728026_x_at): dose or concentration left out as unconfirmed
Conditions: MV-4-11 cells, 48 hours

## Nc1ncn([C@@H]2O[C@H](CO)[C@@H](O)[C@H]2O)c(=O)n1 [azacitidine]
  RFU OLFML3 (11715873_a_at): 10.99 RFU
